Experiments:
Leishmania major [1] = test: Leishmaniacidal activity against Leishmania major MHOM/IL/80/Friedlin promastigotes after 72 hrs by MTT assay; assay type: functional, organism-based
Trypanosoma brucei = test: Trypanocidal activity against Trypanosoma brucei Lister 427, antigenic type MiTat 1.2, clone 221a after 72 hrs by alamarBlue assay; assay type: functional, organism-based; conditions: Lister 427, 72 h
MRC5 = test: Cytotoxicity against human MRC5 cells assessed as reduction in cell viability after 48 hrs by MTT assay; assay type: cell-based; conditions: MRC5, 48 h
Leishmania major [2] = test: Leishmaniacidal activity against Leishmania major MHOM/IL/80/Friedlin amastigotes infected in human THP1 cells after 72 hrs by luciferase luminescence assay; assay type: functional, organism-based; conditions: THP-1, 72 h
[3] = Selectivity index, ratio of IC50 for human MRC5 cells to IC50 for Trypanosoma brucei Lister 427, antigenic type MiTat 1.2, clone 221a; assay type: toxicity; conditions: MRC5 cells versus Trypanosoma brucei Lister 427, read-out: Ratio IC50
[4] = Cytotoxicity against human THP1 cells; assay type: cell-based; conditions: THP-1 cells, read-out: TC50 (the source's name)
[5] = Selectivity index, ratio of TC50 for human THP1 cells to IC50 for Leishmania major MHOM/IL/80/Friedlin amastigotes; assay type: toxicity; conditions: THP1 cells versus Leishmania major amastigotes, read-out: Selectivity Index

Row | Compound | IC50 (Leishmania major [1]) | IC50 (Trypanosoma brucei) | IC50 (MRC5) | IC50 (Leishmania major [2]) | selectivity ratio [3] | CC50 [4] | selectivity ratio [5]
1 | CN(C)CCCc1cc2c3c(c(NCCCn4cc(CO[C@H]5O[C@H](CO)[C@@H](O)[C@H](O)[C@@H]5O)nn4)cc4c3c1C(=O)N(CCCN(C)C)C4=O)C(=O)N(CCCN(C)C)C2=O | 180 nM | 440 nM | 6610 nM | > 5000 nM | 15 | > 10000 nM | –
2 | CN(C)CCCc1cc2c3c(c(NCCCn4cc(CCO[C@@H]5O[C@H](CO)[C@@H](O[C@H]6O[C@H](CO)[C@@H](O)[C@H](O)[C@H]6O)[C@H](O)[C@H]5O)nn4)cc4c3c1C(=O)N(CCCN(C)C)C4=O)C(=O)N(CCCN(C)C)C2=O | 2890 nM | 340 nM | 11100 nM | – | 32.7 | – | –
3 | CN(C)CCCN1C(=O)c2ccc3c4c(c(NCc5cn(CCO[C@@H]6O[C@H](CO)[C@@H](O)[C@H](O)[C@H]6O)nn5)cc(c24)C1=O)C(=O)N(CCCN(C)C)C3=O | – | 17 nM | – | 4420 nM | – | 8650 nM | 2
4 | CN(C)CCCc1cc2c3c(c(NCCCn4cc(CO[C@@H]5O[C@H](CO)[C@@H](O[C@H]6O[C@H](CO)[C@@H](O)[C@H](O)[C@H]6O)[C@H](O)[C@H]5O)nn4)cc4c3c1C(=O)N(CCCN(C)C)C4=O)C(=O)N(CCCN(C)C)C2=O | 11400 nM | 310 nM | 9560 nM | – | 30.8 | – | –
5 | CN(C)CCCc1cc2c3c(c(NCCCn4cc(CO[C@@H]5O[C@H](CO)[C@@H](O[C@@H]6O[C@H](CO)[C@H](O)[C@H](O)[C@H]6O)[C@H](O)[C@H]5O)nn4)cc4c3c1C(=O)N(CCCN(C)C)C4=O)C(=O)N(CCCN(C)C)C2=O | 20000 nM | 370 nM | 6610 nM | – | 17.9 | – | –
6 | CN(C)CCCN1C(=O)c2ccc3c4c(c(NCCCn5cc(CCO[C@@H]6O[C@H](CO)[C@@H](O[C@H]7O[C@H](CO)[C@@H](O)[C@H](O)[C@H]7O)[C@H](O)[C@H]6O)nn5)cc(c24)C1=O)C(=O)N(CCCN(C)C)C3=O | 4680 nM | 130 nM | 220 nM | 430 nM | 1.7 | 1520 nM | 3.5
7 | CN(C)CCCN1C(=O)c2ccc3c4c(c(NCCCn5cc(COCCOCCOCCO[C@@H]6O[C@H](CO)[C@@H](O[C@H]7O[C@H](CO)[C@@H](O)[C@H](O)[C@H]7O)[C@H](O)[C@H]6O)nn5)cc(c24)C1=O)C(=O)N(CCCN(C)C)C3=O | 160 nM | 40 nM | 3300 nM | 4520 nM | 82.5 | > 10000 nM | > 2.2
8 | CCCNc1cc2c3c(ccc4c3c1C(=O)N(CCCN(C)C)C4=O)C(=O)N(CCCN(C)C)C2=O | – | 9 nM | – | 610 nM | 40 | 3650 nM | 6
9 | CN(C)CCCc1cc2c3c(c(NCCCn4cc(CO[C@@H]5O[C@H](CO)[C@@H](O)[C@H](O)[C@H]5O)nn4)cc4c3c1C(=O)N(CCCN(C)C)C4=O)C(=O)N(CCCN(C)C)C2=O | 490 nM | 150 nM | 850 nM | 2630 nM | 5.7 | > 10000 nM | > 3.8
10 | CN(C)CCCN1C(=O)c2ccc3c4c(c(NCCCn5cc(CO[C@@H]6O[C@H](CO)[C@@H](O)[C@H](O)[C@H]6O)nn5)cc(c24)C1=O)C(=O)N(CCCN(C)C)C3=O | 430 nM | 220 nM | 260 nM | 660 nM | 1.2 | 1440 nM | 2.2
11 | CN(C)CCCc1cc2c3c(c(NCCCn4cc(COCCOCCOCCO[C@H]5O[C@H](CO)[C@@H](O)[C@H](O)[C@@H]5O)nn4)cc4c3c1C(=O)N(CCCN(C)C)C4=O)C(=O)N(CCCN(C)C)C2=O | 4750 nM | 190 nM | 6470 nM | – | 34 | – | –
12 | CN(C)CCCc1cc2c3c(c(NCCCn4cc(CCO[C@H]5O[C@H](CO)[C@@H](O)[C@H](O)[C@@H]5O)nn4)cc4c3c1C(=O)N(CCCN(C)C)C4=O)C(=O)N(CCCN(C)C)C2=O | 1970 nM | 310 nM | 5150 nM | > 5000 nM | 16.6 | > 10000 nM | –
13 | CN(C)CCCN1C(=O)c2ccc3c4c(c(NCCCn5cc(CO[C@H]6O[C@H](CO)[C@@H](O)[C@H](O)[C@@H]6O)nn5)cc(c24)C1=O)C(=O)N(CCCN(C)C)C3=O | 2410 nM | 210 nM | 230 nM | 470 nM | 1.1 | 1780 nM | 3.8
14 | CN(C)CCCN1C(=O)c2ccc3c4c(c(NCc5cn([C@@H]6O[C@H](CO)[C@@H](O)[C@H](O)[C@H]6O)nn5)cc(c24)C1=O)C(=O)N(CCCN(C)C)C3=O | – | 24 nM | – | 3910 nM | – | 8100 nM | 2.1
15 | CN(C)CCCN1C(=O)c2ccc3c4c(c(NCCCn5cc(CCO[C@H]6O[C@H](CO)[C@@H](O)[C@H](O)[C@@H]6O)nn5)cc(c24)C1=O)C(=O)N(CCCN(C)C)C3=O | 2790 nM | 180 nM | 170 nM | – | 0.9 | – | –
16 | CN(C)CCCc1cc2c3c(c(NCCCn4cc(COCCOCCOCCO[C@@H]5O[C@H](CO)[C@@H](O[C@H]6O[C@H](CO)[C@@H](O)[C@H](O)[C@H]6O)[C@H](O)[C@H]5O)nn4)cc4c3c1C(=O)N(CCCN(C)C)C4=O)C(=O)N(CCCN(C)C)C2=O | 10700 nM | 390 nM | > 20000 nM | – | > 51 | – | –
17 | CCCNc1cc2c3c(c(CCCN(C)C)cc4c3c1C(=O)N(CCCN(C)C)C4=O)C(=O)N(CCCN(C)C)C2=O | 740 nM | 3 nM | 80 nM | 3800 nM | 26.7 | – | –
18 | CN(C)CCCN1C(=O)c2ccc3c4c(c(NCCCn5cc(COCCOCCOCCO[C@H]6O[C@H](CO)[C@@H](O)[C@H](O)[C@@H]6O)nn5)cc(c24)C1=O)C(=O)N(CCCN(C)C)C3=O | 6120 nM | 130 nM | 1360 nM | – | 10.5 | – | –
19 | CN(C)CCCc1cc2c3c(c(NCCCn4cc(COCCOCCOCCO[C@@H]5O[C@H](CO)[C@@H](O)[C@H](O)[C@H]5O)nn4)cc4c3c1C(=O)N(CCCN(C)C)C4=O)C(=O)N(CCCN(C)C)C2=O | 270 nM | 350 nM | 8850 nM | 3590 nM | 25.3 | > 10000 nM | > 2.8
20 | CN(C)CCCN1C(=O)c2ccc3c4c(c(NCCCn5cc(CO[C@@H]6O[C@H](CO)[C@@H](O[C@@H]7O[C@H](CO)[C@H](O)[C@H](O)[C@H]7O)[C@H](O)[C@H]6O)nn5)cc(c24)C1=O)C(=O)N(CCCN(C)C)C3=O | 1030 nM | 370 nM | 1240 nM | 4720 nM | 3.4 | 9290 nM | 2
21 | CN(C)CCCN1C(=O)c2ccc3c4c(c(NCCCn5cc(CO[C@@H]6O[C@H](CO)[C@@H](O[C@H]7O[C@H](CO)[C@@H](O)[C@H](O)[C@H]7O)[C@H](O)[C@H]6O)nn5)cc(c24)C1=O)C(=O)N(CCCN(C)C)C3=O | 6790 nM | 270 nM | 4340 nM | – | 16.1 | – | –
22 | CN(C)CCCc1cc2c3c(c(NCCCn4cc(CCO[C@@H]5O[C@H](CO)[C@@H](O[C@@H]6O[C@H](CO)[C@H](O)[C@H](O)[C@H]6O)[C@H](O)[C@H]5O)nn4)cc4c3c1C(=O)N(CCCN(C)C)C4=O)C(=O)N(CCCN(C)C)C2=O | 280 nM | 530 nM | 7160 nM | > 5000 nM | 13.5 | > 10000 nM | –
23 | CN(C)CCCc1cc2c3c(c(NCCCn4cc(COCCOCCOCCO[C@@H]5O[C@H](CO)[C@@H](O[C@@H]6O[C@H](CO)[C@H](O)[C@H](O)[C@H]6O)[C@H](O)[C@H]5O)nn4)cc4c3c1C(=O)N(CCCN(C)C)C4=O)C(=O)N(CCCN(C)C)C2=O | 8980 nM | 830 nM | 7040 nM | – | 8.5 | – | –
